Entries after “also recorded” stand apart in the source; their conditions may differ. Read-outs that look alike come from different tables or passages of the source.
Assays:
[1] = test system: P2Y receptor (aorta endothelium); assay: Relaxation of noradrenalin-contracted rabbit aorta; conditions: rabbit aorta; log molar units
From the text: (§1) Muscular relaxation/contraction: Relaxant responses mediated via P2Y receptors were examined in guinea pig taenia coli, rabbit aorta, and rabbit mesenteric artery, as described by Hoyle et al. (Br. J. Pharmacol., 107, 367-374 (1992a)), Burnstock et al., (Br. J. Pharmacol., 90, 383-391 (1987a)), and Rubino et al., (Eur. J. Pharmacol., 212, 237-240 (1992)). Contractile responses mediated via P2X receptors were examined in the guinea pig urinary bladder and vas deferens, and rabbit saphenous artery, also using standard methods (see Hoyle et al., supra., 1992; Hoyle et al., Br. J. Pharmacol., 99, 617-621 (1990); and Burnstock et al., Br. J. Pharmacol., 90, 111-120 (1987b)).
(§2) In FIG. 14, the x-axis is also marked in units of the negative log of the molar concentration of applied putative P2Y receptor agonists and the y-axis is marked in units of the percentage relaxation of the 1 μM noradrenalin-induced contraction of rabbit aorta endothelium. In FIGS. 15-16, the x-axis is marked in units of the negative log of the molar concentration of applied putative p^2X receptor agonists and the y-axis is marked in units of the percentage contraction relative to a standard dose of KCl (i.e., 60 mM), as assessed in guinea pig isolated urinary bladder detrussor muscle (FIG. 15) and guinea pig isolated vas deferens (FIG. 16).

nucleotidases = conditions: Zimmet et al.; Jacobson et al.; cited from earlier work
[2] = target: T1, P2Y receptor (taenia coli) (Cavia porcellus, UniProt P59902); assay: Relaxation of carbachol-contracted guinea pig taenia coli
T1 construct: Relaxant responses mediated via P2Y receptors were examined in guinea pig taenia coli; from tissue; host or cells: guinea pig taenia coli (carbachol-contracted)
Outline: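 Guinea pig taenia coli precontracted with 50 nM carbachol; relaxation to applied P2Y agonists expressed as percentage relaxation against negative log molar agonist concentration.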

[3] = target: T2, adenylyl cyclase linked P2Y receptor (C6 rat glioma cells) (Rattus norvegicus, UniProt Q9EPX4); assay: Inhibition of adenylyl cyclase in C6 rat glioma cells; format: cell-based; conditions: versus phospholipase C linked turkey erythrocyte receptor
T2 construct: endogenous in cells; host or cells: C6 rat glioma cells
Experimental: This example illustrates the inhibition of adenylyl cyclase activity in C6 rat glioma cells, as a function of the presence of certain ATP analogs in the medium in which the C6 cells were cultured.
Cells were labelled by incubation for 2 hours in the presence of 1 to 2 mCi of tritiated adenine/ml in the medium. Cells were washed twice with HEPES (20 mM, pH 7.5)-buffered Eagle's medium and then preincubated for 10 minutes at 37° C. with fresh medium containing 200 μM 3-isobutyl-1-methylxanthine. Agonist incubations were initiated by the simultaneous addition of 10 μM isoproterenol and various concentrations of nucleotides. The reactions were stopped after 10 minutes of aspiration of the nucleotide-containing medium and addition of 1 ml of ice-cold 5% trichloroacetic acid.

P2U receptors = conditions: literature; cited from earlier work
[4] = target: T1, P2Y receptor (taenia coli); conditions: guinea pig taenia coli, cited from earlier work
[5] = target: P2Y receptor (mesenteric artery); assay: Relaxation of rabbit mesenteric artery; conditions: log molar units
From the text: Muscular relaxation/contraction: Relaxant responses mediated via P2Y receptors were examined in guinea pig taenia coli, rabbit aorta, and rabbit mesenteric artery, as described by Hoyle et al. (Br. J. Pharmacol., 107, 367-374 (1992a)), Burnstock et al., (Br. J. Pharmacol., 90, 383-391 (1987a)), and Rubino et al., (Eur. J. Pharmacol., 212, 237-240 (1992)).

[6] = target: T3, P2Y receptor (turkey erythrocyte membranes) (Meleagris gallopavo, UniProt P49652); assay: Stimulation of phospholipase C (inositol phosphate formation) in turkey erythrocyte membranes; format: biochemical
T3 construct: from tissue; host or cells: washed turkey erythrocytes, ghosts prepared by hypotonic lysis
Outline: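 Erythrocytes were labelled 18-24 h at 37 °C with [3H]myoinositol, and ghosts were made by hypotonic lysis. Ghosts (≈175 μg protein) were incubated 5 min at 30 °C in Hepes buffer pH 7.0 with 1 μM GTPγS and nucleotide analogs. Total [3H]inositol phosphates were purified by anion exchange; K0.5 averaged from 3-8 dose-response curves.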

P2Y receptors = conditions: literature; cited from earlier work
[7] = target: T4, P2X receptor (vas deferens) (Cavia porcellus, UniProt A0A286XVA9); assay: Contraction of guinea pig isolated vas deferens
T4 sequence (A0A286XVA9 1-399): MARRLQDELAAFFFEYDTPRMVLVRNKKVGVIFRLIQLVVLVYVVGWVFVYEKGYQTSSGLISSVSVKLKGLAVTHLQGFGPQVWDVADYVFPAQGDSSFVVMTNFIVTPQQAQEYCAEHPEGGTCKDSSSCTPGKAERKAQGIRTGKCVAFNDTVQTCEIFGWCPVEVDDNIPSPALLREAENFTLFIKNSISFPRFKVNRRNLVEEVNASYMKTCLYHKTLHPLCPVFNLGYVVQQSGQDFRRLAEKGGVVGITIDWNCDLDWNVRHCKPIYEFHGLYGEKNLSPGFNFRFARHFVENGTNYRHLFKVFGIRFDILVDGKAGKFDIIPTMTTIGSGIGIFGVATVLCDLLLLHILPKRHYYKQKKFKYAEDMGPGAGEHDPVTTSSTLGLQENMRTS
From the text: as §1, §2

P2X and P2Y receptors [8] = assay: Overall activity in the seven P2X and P2Y preparations
[9] = target: T5, P2X receptor (urinary bladder) (Cavia porcellus, UniProt A0A286XVA9); assay: Contraction of guinea pig isolated urinary bladder detrussor muscle; conditions: guinea pig urinary bladder
T5 construct: guinea pig isolated urinary bladder detrussor muscle; from tissue; host or cells: guinea pig isolated urinary bladder detrusor muscle
From the text: as §1, §2

P2X and P2Y receptors [10] = conditions: Satchell and Maguire; cited from earlier work
[11] = target: T6, P2X receptor (saphenous artery) (Oryctolagus cuniculus, UniProt G1U3D6); assay: Contraction of rabbit saphenous artery; conditions: for activation at 10 µM: read-out: response at 10 μM relative to the contraction produced by 1 μM α,MeATP, saph. artery
T6 construct: and rabbit saphenous artery; from tissue; host or cells: rabbit saphenous artery
T6 sequence (G1U3D6 1-399): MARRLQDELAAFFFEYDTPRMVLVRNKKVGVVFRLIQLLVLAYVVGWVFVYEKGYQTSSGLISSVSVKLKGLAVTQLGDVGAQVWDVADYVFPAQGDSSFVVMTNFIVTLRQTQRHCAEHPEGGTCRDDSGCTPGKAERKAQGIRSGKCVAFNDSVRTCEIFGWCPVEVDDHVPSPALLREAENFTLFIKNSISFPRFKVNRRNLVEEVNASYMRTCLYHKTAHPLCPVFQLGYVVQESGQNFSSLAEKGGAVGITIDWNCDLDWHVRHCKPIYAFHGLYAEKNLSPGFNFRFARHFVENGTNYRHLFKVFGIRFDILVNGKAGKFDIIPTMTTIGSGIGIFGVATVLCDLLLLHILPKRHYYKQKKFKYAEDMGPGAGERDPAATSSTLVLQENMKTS
Outline: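 Contraction of isolated rabbit saphenous artery, standard organ-bath methods; responses at 10 μM expressed as percentage of contraction produced by 1 μM α,MeATP. Highest analogue concentrations tested were 3-30 […].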

[12] = target: T4, P2X receptor (vas deferens); conditions: guinea pig vas deferens; log molar units; footnote e: literature data; cited from earlier work
[13] = test system: P2X receptor (vas deferens); conditions: Burnstock et al. 1985; cited from earlier work
[14] = target: T5, P2X receptor (urinary bladder); conditions: cited from earlier work
[15] = target: T6, P2X receptor (saphenous artery); conditions: Burnstock et al., 1987a; cited from earlier work
[16] = turkey erythrocyte membranes, mean ± S.E.M. for at least 2 determinations, read-out: phosphatidyl inositol metabolism (K0.5, nM) erythrocyte

T1 sequence (P59902 whole entry): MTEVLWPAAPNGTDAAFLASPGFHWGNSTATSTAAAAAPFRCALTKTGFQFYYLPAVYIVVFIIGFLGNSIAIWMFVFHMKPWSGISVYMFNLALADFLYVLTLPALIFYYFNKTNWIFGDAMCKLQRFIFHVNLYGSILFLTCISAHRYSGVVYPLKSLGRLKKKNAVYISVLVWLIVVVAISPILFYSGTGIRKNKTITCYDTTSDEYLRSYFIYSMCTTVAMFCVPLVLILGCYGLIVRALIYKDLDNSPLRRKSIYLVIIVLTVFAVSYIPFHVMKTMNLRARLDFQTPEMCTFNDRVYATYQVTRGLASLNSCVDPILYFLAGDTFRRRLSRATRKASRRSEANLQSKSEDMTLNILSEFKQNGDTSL
T3 sequence (P49652 whole entry): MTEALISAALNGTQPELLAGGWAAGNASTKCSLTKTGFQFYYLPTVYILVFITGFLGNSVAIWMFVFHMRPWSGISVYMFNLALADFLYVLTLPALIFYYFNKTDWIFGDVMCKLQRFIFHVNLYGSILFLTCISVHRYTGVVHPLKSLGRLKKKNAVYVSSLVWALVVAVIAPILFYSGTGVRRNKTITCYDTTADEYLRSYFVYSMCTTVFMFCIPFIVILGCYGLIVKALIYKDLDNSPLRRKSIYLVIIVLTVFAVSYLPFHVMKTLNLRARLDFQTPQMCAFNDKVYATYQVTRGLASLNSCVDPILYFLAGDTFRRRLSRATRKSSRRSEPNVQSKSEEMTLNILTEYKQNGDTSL
T2 sequence (Q9EPX4 whole entry): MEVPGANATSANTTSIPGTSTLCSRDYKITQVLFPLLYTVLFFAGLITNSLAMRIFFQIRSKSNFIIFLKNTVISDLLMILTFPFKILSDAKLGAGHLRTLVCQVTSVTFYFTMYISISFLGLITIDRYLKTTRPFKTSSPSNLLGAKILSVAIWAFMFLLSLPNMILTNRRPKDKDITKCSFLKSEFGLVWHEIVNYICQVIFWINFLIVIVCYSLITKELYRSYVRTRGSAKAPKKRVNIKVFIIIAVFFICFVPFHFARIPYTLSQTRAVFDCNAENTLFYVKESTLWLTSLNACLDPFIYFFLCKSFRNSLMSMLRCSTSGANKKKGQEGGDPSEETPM

CSc1nc(N)c2ncn([C@@H]3O[C@H](COP(=O)(O)OP(=O)(O)OP(=O)(O)O)[C@@H](O)[C@H]3O)c2n1 [2-MeS-ATP, 2-methylthio-ATP]
relaxation pD2, aorta [1]: 6.8 | stability to nucleotidases, in words (nucleotidases): susceptible to ectonucleotidases | EC50 [2]: 0.01 µM | selectivity for the adenylyl cyclase linked (C6 cell) receptor [3]: 7.3 -fold | potency at P2U receptors, in words (P2U receptors): much less potent than ATP at P2U -receptors | pD2, taenia coli, as reported by Hoyle et al. [4]: 8.0±0.15 | relaxation pD2, mes. artery [5]: 6.5 | EC50 [6, 16]: 8 ± 2 nM | EC50 ([6]; turkey erythrocyte membranes, read-out: K0.5): 8 nM | P2Y receptor affinity/potency, in words (P2Y receptors): high affinity for P2Y receptors; also recorded: One of the most potent known P2Y receptor agonists

Nc1ncnc2c1nc(Br)n2[C@@H]1O[C@H](COP(=O)(O)OP(=O)(O)OP(=O)(O)O)[C@@H](O)[C@H]1O [8-Br-ATP, 8-Bromoadenosine 5'-triphosphate]
activity/potency in words, vas deferens [7]: inactive in the vas deferens | overall activity in words, all preparations (P2X and P2Y receptors [8]): relatively ineffective at the receptors tested in this study | activity/potency in words, bladder [9]: limited activity in the urinary bladder | EC50 [6, 16]: 47400 nM | activity at P2 receptors, in words (P2X and P2Y receptors [10]): somewhat active at P2 receptors

Nc1ncnc2c1ncn2[C@@H]1O[C@H](COP(=O)(O)OP(=O)(O)OP(=O)(O)O)[C@@H](O)[C@H]1O [ATP, adenosine-5'-triphosphate, reference compound]
relaxation pD2, aorta [1]: 4.5 | EC50 [11]: 1780 µM | activation at 10 µM [11]: 5% | EC50 [2]: 0.631 µM | relaxation pD2, taenia coli ([2]; guinea pig taenia coli, log molar units): 6.2 ± 0.08 | contraction pD2, vas [12]: 3.5 | relaxation pD2, mes. artery [5]: 6.0 | EC50 ([6]; K0.5, turkey erythrocyte membranes, read from graph): 10000 nM | EC50 [6, 16]: 2800 ± 700 nM

Nc1ncnc2c1ncn2[C@@H]1O[C@H](COP(=O)(O)CP(=O)(O)OP(=O)(O)O)[C@@H](O)[C@H]1O [a,β-Me-ATP, α,β-methylene-ATP]
contraction produced by 1 μM, saphenous artery ([11]; rabbit saphenous artery, 1 μM): half maximal effect | activation at 10 µM [11]: 5.9% | activity/potency in words, taenia coli ([2]; guinea pig taenia coli): reduced activity in the taenia coli | activity/potency in words, vas deferens [7]: markedly enhanced activity | relaxation pD2, taenia coli ([4]; log molar units, footnote e: literature data): 5.6 | activity in words, vas deferens [13]: a potent constrictor | contraction pD2, vas [12]: 5.3 | activity/potency in words, bladder [9]: markedly enhanced activity | activity in words, urinary bladder ([14]; Burnstock et al. 1985): a potent constrictor | contraction pD2, bladder ([14]; guinea pig urinary bladder, log molar units, footnote e: literature data): 5.7 | activity/potency in words, turkey erythrocyte ([6]; turkey erythrocyte membranes): a very weak, yet full agonist | EC50 [6, 16]: > 100000 nM | activity in words, saphenous artery [15]: a potent constrictor

Reference: patent US5620676A, “Biologically active ATP analogs” (priority 1995, dated 1997)
